Test results as given in publication PMC4684281, “Antitumor Effects and Mechanism of Novel Emodin Rhamnoside Derivatives against Human Cancer Cells In Vitro” (PLoS ONE, 2015).
Converted amounts (≈) assume the structure as drawn. “And” between values parts separate entries of the source, which are not always exact repeats. Equal entries are not always repeated. Where two headings read alike, the source gives them in different places.

Key:
[1] = test system: A549 cells; test: MTT cell viability assay, A549; format: cell-based, Human; conditions: for IC50: A549
Method: (§1) The viability of cancer cells was evaluated by MTT assay. Briefly, cells were inoculated in 96-well culture plates at the density of 1×10^4/well with complete medium containing 10% fetal calf serum in a final volume of 0.2 mL. Cells were incubated at 37°C for at least 24 hours to allow optimal attachment. When the cells reached 60% confluence, they were treated with Cisplatin, HCPT and emodin rhamnopyranosides derivatives in various concentrations, and incubated in a humidity-controlled 5%CO2 incubator at 37°C for 72 hours. Medium were exchanged once every 24 hours. Cell control group and blank group were set up in the same manner, with each group having six parallel wells. Cell survival was assessed by directly adding 22 μL of 5mg/mL MTT to 0.2 mL medium. After three hours, the formazan precipitate was dissolved in 200μL isopropanol per well, and completely mixed under room temperature. Afterwards, the optical density of each well was detected at 570 nm wavelength by iMark microplate reader (Bio-rad,USA). This experiment was repeated at least three times.

[2] = test system: OVCAR-3 cells; test: MTT cell viability assay, OVCAR-3; format: cell-based, Human; conditions: for IC50: OVCAR-3
Method: as §1

[3] = test system: HeLa cells; test: MTT cell viability assay, HeLa; format: cell-based, Human
Method: as §1

[4] = test system: MDCK cells; test: MTT cell viability assay, MDCK; format: cell-based, Canine; conditions: Canis lupus familiaris, 72 hours
Method: as §1

[5] = test system: L02 normal liver cells; test: MTT cell viability assay, L02; format: cell-based; conditions: Homo sapiens; MTT at 72h, n=3, mean±S.E.M; read-out: IC50 for EM-d-Rha, L02
Method: as §1

[6] = test system: K562 cells; test: MTT cell viability assay, K562; format: cell-based; conditions: Homo sapiens
Method: as §1

[7] = test system: HepG2 cells; test: Flow cytometry apoptosis analysis (Annexin V/7-AAD), HepG2; format: cell-based, Human; conditions: 48h (Fig 7 legend: 72h); for Early apoptosis: control 6.16±2.20; for Late apoptosis: control 10.71±1.42; for Living cell: control 79.87±1.84
Method: Flow cytometry analysis was determined using Annexin V-APC/7-AAD Apoptosis Detection Kit (BD Parmagen, U.S.A). HepG2 cells were inoculated at a density of 3×10^5/well in 6-well plates, and allowed to attach at 37°C for 24 hours. Afterwards, cells were treated with specific concentration EM-d-Rha, and cultured and harvested as described previously. Cells of each sample were resuspended in […] cold binding buffer before adding 2.5μL Annexin V-APC conjugate and 5μL 7-AAD solution. Then cells were incubated for 15 min on ice in the dark. Cell suspension was diluted to a final volume of 250μL with ice-cold, 1× Annexin V Binding Buffer. The assay was conducted by flow cytometry (BD FACSCalibur,USA). Scatter plots were generated using Cell Quest pro software (BD Biosciences, San Jose, CA). The experiment was repeated three times.

[8] = test system: HepG2 mitochondrial membrane potential (ΔΨm); test: Mitochondrial membrane potential (Rhodamine123, flow cytometry); format: cell-based, Human; conditions: HepG2, 5.0μM
Method: HepG2 cells were inoculated in 10cm diameter culture plates at a density of 5×10^5 cells, and allowed to attach at 37°C for 24 hours. Afterwards, cells were treated with 5.0μM EM-d-Rha for 0, 24h, 48h and 72h respectively. Cells were incubated in a humidified incubator supplied with 5% CO2 at 37°C for 72 hours. Medium were exchanged once every 24 hours. The harvested cells of each sample were suspended in 500μL PBS before adding 5 μL Rhodamine123. Then samples were incubated at 37°C in the dark for 15 min. Cells were again collected by centrifugation at 300×g for 5 minutes and the supernatant was discarded. The cell pellets were washed twice with 4°C PBS. Finally cells of all samples were resuspended in 500μL PBS. Before performing assay, adjusting excitation wavelength and emission wavelength to 480nm, 520nm respectively, the ΔΨm changes of HepG2 mitochondrial were measured with a flow cytometer (BD FACSCalibur, BD Biosciences, US). The experiment was repeated at least three times.

[9] = test system: Cyto C, caspase-3 and caspase-9 proteins in HepG2 cells; test: Western blot analysis of apoptotic proteins; format: cell-based, Human; conditions: HepG2, compared to control group
Method: HepG2 cells were inoculated, cultured and harvested as described previously. Afterwards, the experiment was performed on ice. The harvested cell pellet was washed with cold PBS before being resuspended in 300μL cytosol lysis buffer through vortex. Then cells of all samples were lysed by sonication method on the ice using the ultrasonic cell disruptor (100 W for 30s×4 times). Total protein of each sample was measured by Bradford assay using protein quantification reagents from Bio-Rad. All samples were added 2×loading buffer before analyzing on 12% gels by SDS-PAGE. Then the proteins were transferred to nitrocellulose membranes by electro-blotting. The membranes were blocked in 1% bovine serum albumin (BSA) or 5% milk solution at room temperature for 30min, followed by incubation with the primary antibody against rabbit (Univ-bio, China) at 4°C overnight. The membranes were then washed three times with 1×TBST, each time last for 5 mins. The membranes were then incubated with the secondary antibodies for 3 h at 4°C, followed by washing with 1×TBST as described previously. Finally, the immuno-reactive bands were detected and documented using an enhanced chemiluminescent Western blotting system (Thermo-scientific, USA) on a Versa Doc imaging system.

[10] = HepG2, 10μM, listed as EM-d-Rha

CC(=O)O[C@@H]1[C@@H](O[C@@H]2O[C@@H](C)[C@H](O)[C@@H](OC(C)=O)[C@H]2OC(C)=O)[C@H](C)O[C@@H](Oc2cc(O)c3c(c2)C(=O)c2cc(C)cc(O)c2C3=O)[C@@H]1OC(C)=O [S-8, 3-(2”,3”-Di-O-acetyl-α-L-rhamnopyranosyl-(1→4)-2’,3’-di-O-acetyl-α-L-rhamnopyranosyl)-emodin]
IC50 ([1]; Homo sapiens, MTT at 72h, n=3, mean±S.E.M, read-out: IC50 for EM-d-Rha, A549): 1750 ± 630 nM | IC50 ([1]; Homo sapiens, MTT, 72 hours, read-out: IC50 values, A549): 2.6 µg/mL | inhibition at 0.1 µM ([1]; Homo sapiens, A549, 0.1μM, MTT 72h, read-out: The inhibition rate of EM-d-Rha): 13.95 ± 0.02% | inhibition at 0.5 µM ([1]; Homo sapiens, A549, 0.5μM, MTT 72h, read-out: The inhibition rate of EM-d-Rha): 27.3 ± 2.19% | inhibition at 2.5 µM ([1]; Homo sapiens, A549, 2.5μM, MTT 72h, read-out: The inhibition rate of EM-d-Rha): 33.7 ± 1.46% | inhibition at 12.5 µM ([1]; Homo sapiens, A549, 12.5μM, MTT 72h, read-out: The inhibition rate of EM-d-Rha): 63.5 ± 1.03% | inhibition at 62.5 µM ([1]; Homo sapiens, A549, 62.5μM, MTT 72h, read-out: The inhibition rate of EM-d-Rha): 75.96 ± 0.58% | Decrease of IC50 compared to the IC50 of emodin, A549 ([1]; from Table 1): 7.52 fold | IC50 ([2]; Homo sapiens, MTT at 72h, n=3, mean±S.E.M, read-out: IC50 for EM-d-Rha, OVCAR-3): 2260 ± 920 nM | IC50 ([2]; Homo sapiens, MTT, 72 hours, read-out: IC50 values, OVCAR-3): 0.61 µg/mL | inhibition at 0.1 µM ([2]; Homo sapiens, OVCAR-3, 0.1μM, MTT 72h, read-out: The inhibition rate of EM-d-Rha): 1.4 ± 0.21% | inhibition at 0.5 µM ([2]; Homo sapiens, OVCAR-3, 0.5μM, MTT 72h, read-out: The inhibition rate of EM-d-Rha): 2.95 ± 1.12% | inhibition at 2.5 µM ([2]; Homo sapiens, OVCAR-3, 2.5μM, MTT 72h, read-out: The inhibition rate of EM-d-Rha): 66 ± 1.27% | inhibition at 12.5 µM ([2]; Homo sapiens, OVCAR-3, 12.5μM, MTT 72h, read-out: The inhibition rate of EM-d-Rha): 83.6 ± 1.15% | inhibition at 62.5 µM ([2]; Homo sapiens, OVCAR-3, 62.5μM, MTT 72h, read-out: The inhibition rate of EM-d-Rha): 90.64 ± 0.74% | Decrease of IC50 compared to the IC50 of emodin, OVCAR-3 ([2]; from Table 1): 42.3 fold | IC50 ([3]; Homo sapiens, HeLa, MTT at 72h, n=3, mean±S.E.M, read-out: IC50 for EM-d-Rha, HeLa): 1510 ± 310 nM | IC50 ([3]; Homo sapiens, HeLa, MTT, 72 hours, read-out: IC50 values, HeLa): 1.15 µg/mL | inhibition at 0.1 µM ([3]; Homo sapiens, HeLa, 0.1μM, MTT 72h, read-out: The inhibition rate of EM-d-Rha): 14.8 ± 5.61% | inhibition at 0.5 µM ([3]; Homo sapiens, HeLa, 0.5μM, MTT 72h, read-out: The inhibition rate of EM-d-Rha): 37.6 ± 2.81% | inhibition at 2.5 µM ([3]; Homo sapiens, HeLa, 2.5μM, MTT 72h, read-out: The inhibition rate of EM-d-Rha): 49.2 ± 3.78% | inhibition at 12.5 µM ([3]; Homo sapiens, HeLa, 12.5μM, MTT 72h, read-out: The inhibition rate of EM-d-Rha): 69.1 ± 3.36% | inhibition at 62.5 µM ([3]; Homo sapiens, HeLa, 62.5μM, MTT 72h, read-out: The inhibition rate of EM-d-Rha): 89.74 ± 0.63% | Decrease of IC50 compared to the IC50 of emodin, HeLa ([3]; from Table 1): 10.56 fold | IC50 [4]: 18.5 µg/mL (≈ 25.3 µM) | IC50 [5]: 19700 ± 1700 nM | IC50 ([6]; K562, MTT at 72h, n=3, mean±S.E.M, read-out: IC50 for EM-d-Rha, K562): 2800 ± 110 nM | inhibition at 0.1 µM ([6]; K562, 0.1μM, MTT 72h, read-out: The inhibition rate of EM-d-Rha): 0% | inhibition at 0.5 µM ([6]; K562, 0.5μM, MTT 72h, read-out: The inhibition rate of EM-d-Rha): 15.1 ± 1.13% | inhibition at 2.5 µM ([6]; K562, 2.5μM, MTT 72h, read-out: The inhibition rate of EM-d-Rha): 45.86 ± 0.11% | inhibition at 12.5 µM ([6]; K562, 12.5μM, MTT 72h, read-out: The inhibition rate of EM-d-Rha): 78.74 ± 0.01% | inhibition at 62.5 µM ([6]; K562, 62.5μM, MTT 72h, read-out: The inhibition rate of EM-d-Rha): 80.64 ± 0.03% | Early apoptosis ([7]; HepG2, 2.5μM): 40.40±5.70 % | Late apoptosis ([7]; HepG2, 2.5μM): 7.50±1.04% | Living cell ([7]; HepG2, 2.5μM): 51.20±5.10 % | Early apoptosis ([7]; HepG2, 5μM): 45.20±4.17 % | Late apoptosis ([7]; HepG2, 5μM): 17.53±3.16% | Living cell ([7]; HepG2, 5μM): 36.40±3.23 % | Early apoptosis [7, 10]: 78.77% and 78.77±1.22 % | Late apoptosis ([7]; HepG2, 10μM): 4.22±1.63% | Living cell [7, 10]: 16.53% and 16.53±0.68 % | Percentage of ΔΨm (Vs. control group) ([8]; 24 h): 82.22±5.97 % | Percentage of ΔΨm (Vs. control group) ([8]; 48 h): 53.21±9.71 % | Percentage of ΔΨm (Vs. control group) ([8]; 72 h, listed as EM-d-Rha): 31.77±2.84% | Expression levels of Cyto C, caspase-3 and caspase-9 proteins (western-blot) [9]: three proteins expression increased at a concentration-dependent manner
